US10584115B2, “Substituted pyridine and pyrazine BMI-1 inhibitors” (PTC Therapeutics, Inc., priority 2013, dated 2020)

test system: Bmi-1 protein; test: Sandwich ELISA Assay (Bmi-1 protein level in HT-1080 cells after compound treatment); assay type: cell-based; conditions: Table 1, Bmi-1 sandwich ELISA, read-out: ELISA EC50 value for Bmi-1 protein
Procedure, shortened: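 Sandwich ELISA quantified Bmi-1 protein against recombinant standard (125–8000 pg/mL), with lysates captured overnight at 4 °C and signal by HRP/TMB at 450 nm (570 nm reference). Lysates came from HT-1080 cells incubated 40–48 h with test compounds in 0.5% DMSO.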

| SMILES | EC50 [nM] |
| --- | --- |
| COCc1nc2ccccc2n1-c1cncc(Nc2ccc(C(F)(F)F)cc2)n1 [compound 65, 6-[2-(methoxymethyl)-1H-benzimidazol-1-yl]-N-[4-(trifluoromethyl)phenyl]pyrazin-2-amine] | 100 to 3000 |
| OCc1nc2ccccc2n1-c1cncc(Nc2ccc(C(F)(F)F)cc2)n1 [compound 66, [1-(6-{[4-(trifluoromethyl)phenyl]amino}pyrazin-2-yl)-1H-benzimidazol-2-yl]methanol] | 100 to 3000 |
| Nc1nc2ccccc2n1-c1cncc(Nc2ccc(C(F)(F)F)cc2)n1 [compound 76, 1-(6-{[4-(trifluoromethyl)phenyl]amino}pyrazin-2-yl)-1H-benzimidazol-2-amine] | 100 to 3000 |
| CC(=O)O[C@@H](C)c1nc2ccccc2n1-c1cncc(Nc2ccc(C(F)(F)F)cc2)n1 [compound 78, (1S)-1-[1-(6-{[4-(trifluoromethyl)phenyl]amino}pyrazin-2-yl)-1H-benzimidazol-2-yl]ethyl acetate] | 100 to 3000 |
| CCCCc1nc2ccccc2n1-c1cncc(Nc2ccc(C(F)(F)F)cc2)n1 [compound 80, 6-(2-butyl-1H-benzimidazol-1-yl)-N-[4-(trifluoromethyl)phenyl]pyrazin-2-amine] | 100 to 3000 |
| CCOc1nc2ccccc2n1-c1cncc(Nc2ccc(C(F)(F)F)cc2)n1 [compound 81, 6-(2-ethoxy-1H-benzimidazol-1-yl)-N-[4-(trifluoromethyl)phenyl]pyrazin-2-amine] | 100 to 3000 |
| COc1ccc(Nc2cncc(-c3cccc4nc(C5CC5)cn34)n2)cc1 [compound 86, 6-(2-cyclopropylimidazo[1,2-a]pyridin-5-yl)-N-(4-methoxyphenyl)pyrazin-2-amine] | 10 to 100 |
| FC1(F)Oc2ccc(Nc3cncc(-c4cccc5nc(C6CC6)cn45)n3)cc2O1 [compound 88, 6-(2-cyclopropylimidazo[1,2-a]pyridin-5-yl)-N-(2,2-difluoro-1,3-benzodioxol-5-yl)pyrazin-2-amine] | 100 to 3000 |
| FC1(F)Oc2ccc(Nc3cncc(-c4c(C(F)(F)F)nn5ccccc45)n3)cc2O1 [compound 92, N-(2,2-difluoro-1,3-benzodioxol-5-yl)-6-[2-(trifluoromethyl)pyrazolo[1,5-a]pyridin-3-yl]pyrazin-2-amine] | 100 to 3000 |
| FC(F)(F)c1ccc(Nc2cncc(-c3c(C(F)(F)F)nc4cnccn34)n2)cc1 [compound 93, 6-[2-(trifluoromethyl)imidazo[1,2-a]pyrazin-3-yl]-N-[4-(trifluoromethyl)phenyl]pyrazin-2-amine] | 10 to 100 |

Now from value to compound:

| EC50 [nM] | SMILES |
| --- | --- |
| 10 to 100 | FC(F)Oc1ccc(Nc2cncc(-n3c(C(F)(F)F)nc4ccccc43)n2)cc1 [compound 44, N-[4-(difluoromethoxy)phenyl]-6-[2-(trifluoromethyl)-1H-benzimidazol-1-yl]pyrazin-2-amine] |
| 1 to 10 | CCc1nc2ccccc2n1-c1cncc(Nc2ccc(C(F)(F)F)cc2)n1 [compound 51, 6-(2-ethyl-1H-benzimidazol-1-yl)-N-[4-(trifluoromethyl)phenyl]pyrazin-2-amine] |
| 10 to 100 | CC(C)c1nc2ccccc2n1-c1cncc(Nc2ccc(C(F)(F)F)cc2)n1 [compound 52, 6-[2-(propan-2-yl)-1H-benzimidazol-1-yl]-N-[4-(trifluoromethyl)phenyl]pyrazin-2-amine] |
| 10 to 100 | CCCc1nc2ccccc2n1-c1cncc(Nc2ccc(C(F)(F)F)cc2)n1 [compound 53, 6-(2-propyl-1H-benzimidazol-1-yl)-N-[4-(trifluoromethyl)phenyl]pyrazin-2-amine] |
| 10 to 100 | CSc1nc2ccccc2n1-c1cncc(Nc2ccc(C(F)(F)F)cc2)n1 [compound 54, 6-[2-(methylsulfanyl)-1H-benzimidazol-1-yl]-N-[4-(trifluoromethyl)phenyl]pyrazin-2-amine] |
| 1 to 10 | CNc1nc2ccccc2n1-c1cncc(Nc2ccc(C(F)(F)F)cc2)n1 [compound 61, N-methyl-1-(6-{[4-(trifluoromethyl)phenyl]amino}pyrazin-2-yl)-1H-benzimidazol-2-amine] |
| 10 to 100 | FC(F)(F)Oc1ccc(Nc2cncc(-c3c(C(F)(F)F)nn4ccccc34)n2)cc1 [compound 63, N-[4-(trifluoromethoxy)phenyl]-6-[2-(trifluoromethyl)pyrazolo[1,5-a]pyridin-3-yl]pyrazin-2-amine] |
| 1 to 10 | CSc1ccc(Nc2cncc(-c3c(C(F)(F)F)nc4ccccn34)n2)cc1 [compound 69, N-[4-(methylsulfanyl)phenyl]-6-[2-(trifluoromethyl)imidazo[1,2-a]pyridin-3-yl]pyrazin-2-amine] |
| 1 to 10 | FC(F)Oc1ccc(Nc2cncc(-c3c(C(F)(F)F)nn4ccccc34)n2)cc1 [compound 72, N-[4-(difluoromethoxy)phenyl]-6-[2-(trifluoromethyl)pyrazolo[1,5-a]pyridin-3-yl]pyrazin-2-amine] |
| 10 to 100 | Cc1nc2ccccc2n1-c1cncc(Nc2ccc(C(F)(F)F)nc2)n1 [compound 73, 6-(2-methyl-1H-benzimidazol-1-yl)-N-[6-(trifluoromethyl)pyridin-3-yl]pyrazin-2-amine] |
| < 1 | COc1ccc(Nc2cncc(-c3c(C(F)(F)F)nn4ccccc34)n2)cc1 [compound 74, N-(4-methoxyphenyl)-6-[2-(trifluoromethyl)pyrazolo[1,5-a]pyridin-3-yl]pyrazin-2-amine] |
| 1 to 10 | Cc1ccc(Nc2cncc(-c3c(C(F)(F)F)nn4ccccc34)n2)cc1 [compound 75, N-(4-methylphenyl)-6-[2-(trifluoromethyl)pyrazolo[1,5-a]pyridin-3-yl]pyrazin-2-amine] |
| 10 to 100 | COc1nc2ccccc2n1-c1cncc(Nc2ccc(C(F)(F)F)cc2)n1 [compound 77, 6-(2-methoxy-1H-benzimidazol-1-yl)-N-[4-(trifluoromethyl)phenyl]pyrazin-2-amine] |
| 10 to 100 | CCSc1nc2ccccc2n1-c1cncc(Nc2ccc(C(F)(F)F)cc2)n1 [compound 79, 6-[2-(ethylsulfanyl)-1H-benzimidazol-1-yl]-N-[4-(trifluoromethyl)phenyl]pyrazin-2-amine] |
| 10 to 100 | Cc1nc2ncccc2n1-c1cncc(Nc2ccc(C(F)(F)F)cc2)n1 [compound 82, 6-(2-methyl-1H-imidazo[4,5-b]pyridin-1-yl)-N-[4-(trifluoromethyl)phenyl]pyrazin-2-amine] |
| 10 to 100 | CCc1nc2ncccc2n1-c1cncc(Nc2ccc(C(F)(F)F)cc2)n1 [compound 83, 6-(2-ethyl-1H-imidazo[4,5-b]pyridin-1-yl)-N-[4-(trifluoromethyl)phenyl]pyrazin-2-amine] |
| 10 to 100 | Cc1nc2ncccc2n1-c1cncc(Nc2ccc(OC(F)F)cc2)n1 [compound 85, N-[4-(difluoromethoxy)phenyl]-6-(2-methyl-1H-imidazo[4,5-b]pyridin-1-yl)pyrazin-2-amine] |

same assay, conditions: read-out: ELISA EC50 value for Bmi-1 protein, Table 1, Bmi-1 sandwich ELISA

| SMILES | EC50 [nM] |
| --- | --- |
| FC(F)(F)c1ccc(Nc2cncc(-c3c(C(F)(F)F)nn4ccccc34)n2)cc1 [compound 62, N-[4-(trifluoromethyl)phenyl]-6-[2-(trifluoromethyl)pyrazolo[1,5-a]pyridin-3-yl]pyrazin-2-amine] | 10 to 100 |
| FC(F)Oc1ccc(Nc2cncc(-c3cccc4nc(C5CC5)cn34)n2)cc1 [compound 90, 6-(2-cyclopropylimidazo[1,2-a]pyridin-5-yl)-N-[4-(difluoromethoxy)phenyl]pyrazin-2-amine] | 10 to 100 |
